Where a SMILES comes first, the peptide text is derived from it. The star is where a group is joined. Lauroyl = CCCCCCCCCCCC(=O)*; Decanoyl = CCCCCCCCCC(=O)*; Octanoyl = CCCCCCCC(=O)*
How the values were obtained:
all bacterial strains = test: Antibacterial MIC assay, all bacterial strains together (range or geometric mean); type: cell-based; settings: for GM (geometric mean of the MIC values against all bacterial strains): Table 1, six bacterial strains; for GM of MIC Tot. bact.: Table S3, all bacterial test strains, MIC >256 set to 256
Procedure: The selectivity index (SI) of the peptides towards bacteria over eukaryotic cells was calculated using the geometric mean (GM) of the MIC values against all bacterial test strains, according to the method by Orlov et al.. The SI for each peptide was determined as the ratio of the RBC-EC50 value by the corresponding GM value. Larger SI values indicate greater selectivity for microbial cells. […] In general, the SI was higher against the Gram-positive bacteral strains than the Gram-negative strains. (Table S3). Overall, peptides displaying EC50 < 100 µg/mL were considered too haemolytic to be of interest for further exploration.
(§1) All cyclic and linear peptides were screened for antibacterial activity against four Gram-positive strains: B. subtilis (Bs, ATCC 23857), C. glutamicum (Cg, ATCC 13032), S. aureus (Sa, ATCC 9144) and S. epidermidis RP62A (Se, ATCC 35984), and two Gram-negative strains: E. coli (Ec, ATCC 25922) and P. aeruginosa (Pa, ATCC 27853). The activity was assessed using a broth microdilution assay according to a modified CLSI-based method. Briefly, overnight bacterial cultures were grown in Mueller–Hinton (MH) broth medium (Difco Laboratories, Detroit, MI, USA) for 2 h at room temperature. The optical density (OD600) was measured, and the bacterial suspensions were adjusted to 2.5–3 × 10^4 CFU/mL in MH medium. The bacterial suspension (50 µL) was distributed in 96-well plates (Nunc, Roskilde, Denmark) preloaded with two-fold dilution series (256 to 1 µg/mL) of peptide solutions (50 µL), giving a final well volume of 100 µL. The microplates were incubated in an EnVision 2103 microplate reader (PerkinElmer, Llantrisant, UK) at 35 °C, with OD595 recorded every hour for 24 h. MIC was defined as the lowest concentration of peptides showing an optical density less than 10% of the negative (growth) control, consisting of bacterial suspension and water. Polymyxin B sulfate (Sigma-Aldrich, St. Louis, MO, USA) and chlorhexidine acetate (CHX, Fresenius Kabi, Halden, Norway), both with concentrations ranging from 12.5 to 0.09 μg/mL, served as positive (growth inhibition) controls. All peptides were tested in triplicate.

[1] = test system: Gram-negative bacterial strains (E. coli and P. aeruginosa); test: Antibacterial MIC assay, Gram-negative strains together (range or geometric mean); type: cell-based; settings: Table S3; MIC >256 set to 256
Procedure: as §1

[2] = test system: S. aureus (Sa, ATCC 9144); test: microbe, parasite or virus in culture; type: cell-based, Staphylococcus aureus; settings: ATCC 9144, 24 h
Procedure: as §1

[3] = test system: P. aeruginosa (Pa, ATCC 27853); test: microbe, parasite or virus in culture; type: cell-based, Pseudomonas aeruginosa; settings: ATCC 27853, 24 h
Procedure: as §1

[4] = test system: fungi (A. pullulans, C. albicans, Rhodotorula sp.); test: Antifungal MIC assay, all fungi together (range or geometric mean); type: cell-based; settings: Table S3; MIC >128 set to 128
Procedure: (§2) The synthesized peptides were screened for antifungal activity against the molds A. pullulans (Ap) and Rhodotorula sp. (Rh) (both obtained from Professor Arne Tronsmo, The Norwegian University of Life Sciences, Ås, Norway) and the yeast C. albicans (Ca, ATCC 10231) as previously described. In short, fungal spores were grown in potato dextrose broth media (Difco) containing 2% D(+)-glucose (Merck, Darmstadt, Germany) at 25–30 °C while shaking at 200 rpm overnight. The cultures were diluted with a dextrose media containing glucose to a concentration of approx. 4 × 10^5 spores/mL. Aliquots of the cultures (50 µL) were transferred to 96 well microtiter plates preloaded with the synthetic peptides (50 µL) in two-fold serial dilutions (256 to 1 µg/mL). Polymyxin B and CHX (both with concentrations ranging from 12.5 to 0.09 μg/mL) served as positive antibiotic controls. The microtiter plates containing the fungal spores and the test peptides were incubated at room temperature for 48 h and OD600 was recorded using a Synergy H1 Hybrid microplate reader system (BioTek, Winooski, VT, USA). MIC was defined as the lowest peptide concentration showing an optical density less than 10% of the negative (growth) control. All experiments were performed in triplicate.

E. coli (Ec, ATCC 25922) = test: microbe, parasite or virus in culture; type: cell-based, Escherichia coli; settings: ATCC 25922, 24 h
Procedure: as §1

[5] = test system: C. glutamicum (Cg, ATCC 13032); test: microbe, parasite or virus in culture; type: cell-based, Corynebacterium glutamicum; settings: ATCC 13032, 24 h
Procedure: as §1

[6] = test system: B. subtilis (Bs, ATCC 23857); test: microbe, parasite or virus in culture; type: cell-based, Bacillus subtilis; settings: ATCC 23857, 24 h
Procedure: as §1

[7] = test system: Gram-positive bacterial strains; settings: for MIC against the Gram-positive bacterial strains: 2 h; for GM of MIC G+: Table S3, MIC >256 set to 256
Procedure: as §1

[8] = test system: human red blood cells (RBC); test: Haemolytic activity assay; type: cell-based; settings: for Selectivity index (SI) G- / Selectivity index (SI) G+ / Selectivity index (SI) Fungi: Table S3, highest tested concentration used where EC50 above it; for Selectivity index (SI) G-: EC50/GM of Gram-negative strains; for Selectivity index (SI) G+: EC50/GM of Gram-positive strains; for Selectivity index (SI) Fungi: EC50/GM of fungi; for SI (selectivity index = EC50/GM): haemolytic EC50 over GM of MIC against all bacterial strains, Table 1; for RBC Tox. (EC50), haemolytic activity: human RBC, 1 h, 37 °C, concentration giving 50% haemolysis
Procedure: The synthetized lipopeptides were screened for haemolytic activity against human red blood cells (RBC), in concentrations ranging from 500 to 3.9 μM, following a previously described protocol. In brief, haemolysis was determined using a heparinizied (10 IU/mL) fraction of freshly drawn human blood. A second fraction of blood, which was collected in test tubes containing ethylenediaminetetraacetic acid (EDTA, Vacutest, KIMA, Arzergrande, Italy), was used for determination of the hematocrit (hct). Plasma was removed from heparinized blood by washing three times with prewarmed phosphate-buffered saline (PBS) before being adjusted to a hematocrit of 4%. Peptides dissolved in dimethyl sulfoxide (DMSO) were further diluted with PBS to a final DMSO content of ≤1%. Triton X-100 (Sigma-Aldrich, St. Louis, MO, USA), used at a final concentration of 0.1%, served as a positive control for 100% haemolysis, whereas 1% DMSO in PBS buffer served as a negative control where no toxicity was detected. Duplicates of test solutions and erythrocytes, with 1% hct final concentration, were prepared in a 96-well polypropylene V-bottom plate (Nunc, Fischer scientific, Oslo, Norway). They were incubated under agitation at 37 °C and 800 rpm for 1 h. After centrifugation (5 min, 3000× g), 100 µL from each well were transferred to a flat-bottomed 96-well plate and absorbance was measured at 545 nm with a microplate reader (SpectraMax 190, Molecular Devices, San Jose, CA, USA). After subtracting PBS background, the percentage of haemolysis was calculated as the ratio of the absorbance in the peptide-treated and surfactant-treated samples. Three independent experiments were performed, and EC50 (the concentration giving 50% haemolysis) values are presented as averages.

Rhodotorula sp. (Rh) = test: microbe, parasite or virus in culture; type: cell-based; settings: 48 h
Procedure: as §2

A. pullulans (Ap) = test: microbe, parasite or virus in culture; type: cell-based, Aurobasidium pollulans; settings: 48 h
Procedure: as §2

[9] = test system: C. albicans (Ca, ATCC 10231); test: microbe, parasite or virus in culture; type: cell-based, Candida albicans; settings: ATCC 10231, 48 h
Procedure: as §2

[10] = test system: S. epidermidis RP62A (Se, ATCC 35984); test: microbe, parasite or virus in culture; type: cell-based, Staphylococcus epidermidis; settings: ATCC 35984, 24 h
Procedure: as §1

Compound | GM (geometric mean of the MIC values against all bacterial strains) (all bacterial strains) [µg/mL] | GM of MIC Tot. bact. (all bacterial strains) [µg/mL] | GM of MIC G- [1] [µg/mL] | Antimicrobial Activity (MIC) Gram + Sa [2] [µg/mL] | Antimicrobial Activity (MIC) Gram − Pa [3] [µg/mL] | GM of MIC Fungi [4] [µg/mL] | Antimicrobial Activity (MIC) Gram − Ec (E. coli (Ec, ATCC 25922)) [µg/mL] | Antimicrobial Activity (MIC) Gram + Cg [5] [µg/mL] | Antimicrobial Activity (MIC) Gram + Bs [6] [µg/mL] | MIC against the Gram-positive bacterial strains [7] [µg/mL] | GM of MIC G+ [7] [µg/mL] | Selectivity index (SI) G- [8] | Selectivity index (SI) G+ [8] | Selectivity index (SI) Fungi [8] | SI (selectivity index = EC50/GM) [8] | RBC Tox. (EC50), haemolytic activity [8] [µg/mL] | Antimicrobial Activity (MIC) Fungi Rh (Rhodotorula sp. (Rh)) [µg/mL] | Antimicrobial Activity (MIC) Fungi Ap (A. pullulans (Ap)) [µg/mL] | Antimicrobial Activity (MIC) Fungi Ca [9] [µg/mL] | Antimicrobial Activity (MIC) Gram + Se [10] [µg/mL]
CCCCCCCC(=O)N[C@@H](CS)C(=O)NCC(=O)N[C@@H](CCCCN)C(=O)N[C@@H](CCCCN)C(=O)N[C@@H](Cc1c[nH]c2ccccc12)C(=O)N[C@@H](Cc1c[nH]c2ccccc12)C(=O)NCC(=O)N[C@@H](Cc1c[nH]c2ccccc12)C(=O)N[C@@H](CCCCN)C(=O)N[C@@H](CS)C(=O)N[C@@H](CCCCN)C(=O)N[C@@H](CC(C)C)C(N)=O [Peptide C8-Turg-2, C8- CGKKWWGWKC KL-NH2] (Octanoyl-CGKKWWGWKCKL-NH2) | 9 | 9 | 16 | 8 | 16 | 40 | 16 | 4 | 8 | 4 to 8 | 7 | 12 | 29 | 5 | 22 | 198 | 32 | 32 | 64 | 8
CCCCCCCCCC(=O)N[C@@H](CS)C(=O)NCC(=O)N[C@@H](CCCCN)C(=O)N[C@@H](CCCCN)C(=O)N1CCC[C@H]1C(=O)NCC(=O)NCC(=O)N[C@@H](Cc1c[nH]c2ccccc12)C(=O)N[C@@H](CCCCN)C(=O)N[C@@H](CS)C(=O)N[C@@H](CCCCN)C(=O)N[C@@H](CC(C)C)C(N)=O [Peptide C10-Turg-1, C10- CGKKPGGWKC KL-NH2] (Decanoyl-CGKKPGGWKCKL-NH2) | 10 | 10 | 23 | 16 | 32 | 25 | 16 | 4 | 4 |  | 7 | > 42 | > 142 | > 38 | >95 | >957 | 8 | 32 | 64 | 8
CCCCCCCCCC(=O)N[C@@H](CS)C(=O)NCC(=O)N[C@@H](CCCCN)C(=O)N[C@@H](CCCCN)C(=O)N[C@@H](Cc1c[nH]c2ccccc12)C(=O)N[C@@H](Cc1c[nH]c2ccccc12)C(=O)NCC(=O)N[C@@H](Cc1c[nH]c2ccccc12)C(=O)N[C@@H](CCCCN)C(=O)N[C@@H](CS)C(=O)N[C@@H](CCCCN)C(=O)N[C@@H](CC(C)C)C(N)=O [Peptide C10-Turg-2, C10- CGKKWWGWKC KL-NH2] (Decanoyl-CGKKWWGWKCKL-NH2) | 8 | 8 | 11 | 8 | 16 | 40 | 8 | 4 | 8 | 4 to 8 | 7 | 6 | 10 | 2 | 8 |  | 32 | 32 | 64 | 8
CCCCCCCCCCCC(=O)N[C@@H](CS)C(=O)NCC(=O)N[C@@H](CCCCN)C(=O)N[C@@H](CCCCN)C(=O)N[C@@H](Cc1c[nH]c2ccccc12)C(=O)N[C@@H](Cc1c[nH]c2ccccc12)C(=O)NCC(=O)N[C@@H](Cc1c[nH]c2ccccc12)C(=O)N[C@@H](CCCCN)C(=O)N[C@@H](CS)C(=O)N[C@@H](CCCCN)C(=O)N[C@@H](CC(C)C)C(N)=O [Peptide C12-Turg-2, C12- CGKKWWGWKC KL-NH2] (Lauroyl-CGKKWWGWKCKL-NH2) | 14 | 14 | 23 | 16 | 32 | 40 | 16 | 16 | 8 |  | 11 | 2 | 5 | 1 | 4 |  | 32 | 32 | 64 | 8

From paper PMC9696794, “Synthesis and Antimicrobial Activity of Short Analogues of the Marine Antimicrobial Peptide Turgencin A: Effects of SAR Optimizations, Cys-Cys Cyclization and Lipopeptide Modifications” (International Journal of Molecular Sciences, 2022)
